Test results reported in patent publication US10064858B2, “Methods and compositions for treating bacterial infections with iron chelators” (THE UNITED STATES OF AMERICA, AS REPRESENTED BY THE …, priority 2011, dated 2018).
Where two headings read alike, the source gives them in different places.

How the values were obtained:
[1] = test system: P. aeruginosa; assay: MIC in RPMI1640 media (Table 2); assay type: cell-based; conditions: Pseudomonas aeruginosa
Description: (§1) […] […] Tests were performed in triplicate. MIC of iron chelators were determined for noscomial ESKAPE pathogens.
(§2) This media is closer to the iron levels in the human body. MICs are in ug/mL.

[2] = test system: Acinetobacter baumannii; assay: MIC in RPMI1640 media (Table 2); assay type: cell-based
Description: as §1, §2

[3] = test system: E. coli; assay: MIC in RPMI1640 media (Table 2); assay type: cell-based
Description: as §1, §2

[4] = test system: K. pneumonia; assay: MIC in RPMI1640 media (Table 2); assay type: cell-based; conditions: Klebsiella pneumoniae
Description: as §1, §2

[5] = test system: multi-drug resistant bacterial species; assay: Time kill method, synergy with rifampin (summary); assay type: cell-based
Description: (§3) Reductions in colony forming units (CFU)/mL were determined over time (time-kill assay) after exposure to VK28 and deferiprone (DFP), the two iron chelators that performed best in MIC assays when compared to controls. To better represent the iron content found in the human body, MIC and time-kill assays were also determined in minimal media and tissue culture media. Time-Kill assays were performed as previously described in G. P. Neupane et al., “In vitro time-kill activities of ciprofloxacin alone and in combination with the iron chelator deferasirox against Vibrio vulnificus,” European Journal of Clinical Microbiology and Infectious Diseases, 407-410 (2010); and R. L. White, et al., “Comparison of Three Different In Vitro Methods of Detecting synergy: Time-Kill, Checkerboard, and E test,” Journal of Antimicrobial Agents and Chemotherapy, 1914-1918 (1996). Initial inocula, for example 1×10^6 CFU/mL or 1×10^7 CFU/mL were challenged with iron chelator with and/or without an antibiotic. Cells were allowed to grow in CAMHB at 37° C. for 24 hours. Time-kill results were analyzed by determining the change in log 10 numbers of CFU/ml at 0, 6, and 24 h, compared to counts at 0 h. Antimicrobials were considered bactericidal at the lowest concentration that reduced the size of the original inoculum by >3 log 10 CFU/ml (99.9%) over each of the time periods and were considered bacteriostatic if the inoculum's size was reduced by 0 to <3 log 10 CFU/ml.

[6] = test system: multi-drug resistant bacterial species; assay: Checkerboard, synergy with rifampin (summary); assay type: cell-based
Description: Drug interactions were initially evaluated with the “checkerboard” microdilution design, which provided a matrix of all drug combinations assayed in terms of fractions of the previously determined MIC. The checkerboard microdilution design is described in R. J. Tallarida, “Drug Synergism: Its Detection and Applications,” Journal of Pharmacology and Experimental Therapeutics, 865-872 (2001); and in R. L. White, et al., (1996), supra. FIGS. 39A and 39B show the wellplates having different concentrations of iron chelator and antibiotic, as labeled along the x-axis and y-axis.
The checkerboard assay was used to asses other combinations of iron chelators and antibiotics. The fractional inhibitory concentration index (FIC), which was calculated as follows: FIC=(MIC A in combination/MIC A)+(MIC B in combination/MIC B). Interaction was defined as synergistic if the FIC was <1.0, preferably <0.5, no interaction if the FIC was >1.0 and <4.0, and antagonistic if the FIC was >4.0.
The assay was run against the multi-drug resistant bacterial species AB 19606, AB 17978, KP ndm, PA PAO1, PA 27853, EC 35718, and EC 43888. Blank spaces indicate concentrations not tested. […] Against the species PA PAO1 and PA 27853, all the antibiotics except for Ami.

[7] = test system: clinical isolates of A. baumannii; assay: MIC for clinical isolates in RPMI (low iron) media (Table 4); assay type: cell-based; design: key to MIC of Iron Chelators: NG = no growth in table 4; conditions: for MIC: Acinetobacter baumannii
Description: as §1
For a number of strains, the iron chelators produced no growth of bacteria (NG).

[8] = test system: E. coli EC35218; assay: Time-kill assay in CAMHB; assay type: cell-based
Description: as §3
In this example, time-kill assays were performed as described in Example 9 against different multi-drug resistant bacteria, namely E. coli and MRSA.
In this example, time-kill assays were performed as described in Example 9 using ApoL1 as the iron chelator against two different E. coli strains. […] Time-kill results were analyzed by determining the change in log 10 numbers of CFU/mL at 6 and 24 hours.
In this example, time-kill assays were performed as described in Example 9 using Apo6619 as the iron chelator in combination with Rifampin against E. coli 35718. […] Time-kill results were analyzed by determining the change in log 10 numbers of CFU/mL at 0, 5 and 24 hours.

[9] = test system: AB5075; assay: Time-kill assay in M9 minimal media; assay type: cell-based, A. baumannii; conditions: 24 hours
Description: as §3
The untreated sample (♦) had greater than 1×10^9 CFU/mL after 9 hours that was sustained at 24 hours.

[10] = ATCC27853, ATCC 27853, read-out: MIC of Iron Chelators
[11] = PAO1, read-out: MIC of Iron Chelators
[12] = ATCC17978, ATCC 17978, read-out: MIC of Iron Chelators
[13] = ATCC19606, ATCC 19606, read-out: MIC of Iron Chelators
[14] = Escherichia coli, 35718, read-out: MIC of Iron Chelators
[15] = Escherichia coli, ATCC43888, ATCC 43888 (0157:H7), read-out: MIC of Iron Chelators
[16] = ATCC700603, ATCC 700603, read-out: MIC of Iron Chelators
[17] = BAA2146, BAA-2146, read-out: MIC of Iron Chelators
[18] = AB3638, read-out: MIC of Iron Chelators
[19] = AB3806, read-out: MIC of Iron Chelators
[20] = AB4025, read-out: MIC of Iron Chelators
[21] = AB4026, read-out: MIC of Iron Chelators
[22] = AB4027, read-out: MIC of Iron Chelators
[23] = AB4052, read-out: MIC of Iron Chelators
[24] = AB4269, read-out: MIC of Iron Chelators
[25] = AB4448, read-out: MIC of Iron Chelators
[26] = AB4456, read-out: MIC of Iron Chelators
[27] = AB4490, read-out: MIC of Iron Chelators
[28] = AB4498, read-out: MIC of Iron Chelators
[29] = AB4795, read-out: MIC of Iron Chelators
[30] = AB4857, read-out: MIC of Iron Chelators
[31] = AB4878, read-out: MIC of Iron Chelators
[32] = AB4932, read-out: MIC of Iron Chelators
[33] = AB4957, read-out: MIC of Iron Chelators
[34] = AB4991, read-out: MIC of Iron Chelators
[35] = AB5001, read-out: MIC of Iron Chelators
[36] = AB5075, read-out: MIC of Iron Chelators
[37] = AB5197, read-out: MIC of Iron Chelators
[38] = AB5256, read-out: MIC of Iron Chelators
[39] = AB5674, read-out: MIC of Iron Chelators
[40] = AB5711, read-out: MIC of Iron Chelators
[41] = 1.5 MIC ApoL1 in combination with ¾MIC rifampin, CAMHB

CNC(=O)c1c(O)c(=O)cc(C)n1C1CC1 [Apo6619, 1-cyclopropyl-3-hydroxy-6-methyl-4-oxo-1,4-dihydro-pyridine-2-carboxylic acid methylamide]
MIC [1, 10]: > 500 µg/mL
MIC [1, 11]: 500 µg/mL
MIC [2, 12]: 64 µg/mL
MIC [2, 13]: 125 µg/mL
MIC [3, 14]: 250 µg/mL
MIC [3, 15]: 250 µg/mL
MIC [4, 16]: 500 µg/mL
MIC [4, 17]: 500 µg/mL
synergy with rifampin, time kill method [5]: strong synergy
synergy with rifampin, checkerboard [6]: moderate degrees of synergy
MIC of Iron Chelators ([7]; AB967): NG
MIC of Iron Chelators ([7]; AB2828): NG
MIC of Iron Chelators ([7]; AB3340): NG
MIC of Iron Chelators ([7]; AB3560): NG
MIC of Iron Chelators ([7]; AB3927): NG
MIC [7, 18]: 250 µg/mL
MIC ([7]; AB3785, read-out: MIC of Iron Chelators): 125 µg/mL
MIC [7, 19]: 250 µg/mL
MIC ([7]; AB3917, read-out: MIC of Iron Chelators): 250 µg/mL
MIC [7, 20]: 250 µg/mL
MIC [7, 21]: 250 µg/mL
MIC [7, 22]: 250 µg/mL
MIC [7, 23]: 250 µg/mL
MIC [7, 24]: 125 µg/mL
MIC [7, 25]: 250 µg/mL
MIC [7, 26]: 250 µg/mL
MIC [7, 27]: 250 µg/mL
MIC [7, 28]: 250 µg/mL
MIC [7, 29]: 250 µg/mL
MIC [7, 30]: 250 µg/mL
MIC [7, 31]: 250 µg/mL
MIC [7, 32]: 250 µg/mL
MIC [7, 33]: 250 µg/mL
MIC [7, 34]: 125 µg/mL
MIC [7, 35]: 250 µg/mL
MIC [7, 36]: 250 µg/mL
MIC [7, 37]: 250 µg/mL
MIC [7, 38]: 250 µg/mL
MIC [7, 39]: 250 µg/mL
MIC [7, 40]: 250 µg/mL
time kill curves ([8]; E. coli 35718, 1.5×MIC Apo6619 in combination with 0.75×MIC Rifampin, 0, 5 and 24 hours): combinational effect

Cc1c(O)c(=O)ccn1C [ApoL1, 3-hydroxy-1,2-dimethyl-4(1H)-pyridone]
MIC [1, 10]: 500 µg/mL
MIC [1, 11]: 125 µg/mL
MIC [2, 12]: 64 µg/mL
MIC [2, 13]: 125 µg/mL
MIC [3, 14]: 500 µg/mL
MIC [3, 15]: 250 µg/mL
MIC [4, 16]: 250 µg/mL
MIC [4, 17]: 250 µg/mL
synergy with rifampin, time kill method [5]: strong synergy
synergy with rifampin, checkerboard [6]: moderate degrees of synergy
MIC of Iron Chelators ([7]; AB967): NG
MIC of Iron Chelators ([7]; AB2828): NG
MIC of Iron Chelators ([7]; AB3340): NG
MIC of Iron Chelators ([7]; AB3560): NG
MIC of Iron Chelators ([7]; AB3785): NG
MIC of Iron Chelators ([7]; AB3917): NG
MIC of Iron Chelators ([7]; AB3927): NG
MIC [7, 18]: 125 µg/mL
MIC [7, 19]: 125 µg/mL
MIC [7, 20]: 125 µg/mL
MIC [7, 21]: 125 µg/mL
MIC [7, 22]: 125 µg/mL
MIC [7, 23]: 125 µg/mL
MIC [7, 24]: 125 µg/mL
MIC [7, 25]: 125 µg/mL
MIC [7, 26]: 125 µg/mL
MIC [7, 27]: 125 µg/mL
MIC [7, 28]: 125 µg/mL
MIC [7, 29]: 125 µg/mL
MIC [7, 30]: 125 µg/mL
MIC [7, 31]: 250 µg/mL
MIC [7, 32]: 64 µg/mL
MIC [7, 33]: 125 µg/mL
MIC [7, 34]: 125 µg/mL
MIC [7, 35]: 125 µg/mL
MIC [7, 36]: 125 µg/mL
MIC [7, 37]: 125 µg/mL
MIC [7, 38]: 125 µg/mL
MIC [7, 39]: 125 µg/mL
MIC [7, 40]: 64 µg/mL
time-kill course of CFU/ml ([9]; 0.5×MIC): slight reduction in CFU/ml levels over the 24 hour period
time-kill course of CFU/ml ([9]; 1×MIC): slight reduction in CFU/ml levels over the 24 hour period
time-kill course of CFU/ml ([9]; 2×MIC): sustained level of CFU/ml obtained over the 24 hour period
reduction in CFU/mL [8, 41]: greater than 3 log 10
time-kill effect [8, 41]: bactericidal (considered bactericidal at the lowest concentration that reduced the size of the original inoculum by >3 log 10 CFU/ml (99.9%))
time-kill effect ([8]; 1.5 MIC Iron Chelator alone, CAMHB): bacteriostatic (considered bacteriostatic if the inoculum's size was reduced by 0 to <3 log 10 CFU/ml)
